The source of these data is paper PMC9862034, “Novel Antioxidant Peptides from Pearl Shell Meat Hydrolysate and Their Antioxidant Activity Mechanism” (Molecules, 2023).

Converted amounts (≈) assume the structure as drawn. Read-outs that look alike come from different tables or passages of the source. No end group written: not given here.

Experiment [1] has as its system HepG2 cells. It is filed as cell-based. As for the experimental part: HepG2 cells were seeded in 96-well plates (1 × 10^4 cells/well) and cultured for 48 h. To the AAPH damage group, we added 150 µL of fresh medium containing AAPH (final concentration 0.025–25 mM), and to the control group, we added fresh medium without AAPH. After culturing for 24 h, cell viability was determined by the MTT method. HepG2 cells were seeded in 96-well plates (1 × 10^4 cells/well) and cultured for 24 h. To the sample treated group, we added 150 µL of fresh medium containing samples (0.025–0.2 mg/mL). To the control group and AAPH damage group, we added fresh medium without samples. After treating for 24 h, to the sample treated group and AAPH damage group, we added 50 µL of fresh medium containing AAPH (final concentrations of 0.25 and 10 mM). After culturing for 24 h, cell viability was determined.

In experiment [2] the test system is HepG2 cells. The experiment in a line: cells. The conditions noted are these: for EC50 (cellular antioxidant activity): 1 h. The protocol: Obtained from National Collection of Authenticated Cell Cultural (Shanghai, China), HepG2 cells between 20 and 35 passages were grown in medium (DMEM supplemented with 10% fetal bovine serum, 1% antibiotic–antimycotic solution) in a 5% CO2 incubator at 37 °C.
Cellular antioxidant activity (CAA) was determined according to the method of Wolfe et al.. HepG2 cells were seeded in 96-well plates (6 × 10^4 cells/well) and cultured for 24 h. DCFH-DA working solution (50 µL, 50 µM) and 50 µL of medium with sample (0.005–0.1 mg/mL) were added in the sample treated group. DCFH-DA working solution (50 µL, 50 µM) and sterile water (50 µL) were added to the control group and the blank group. After incubated for 1 h, the cells were washed with PBS. Then, AAPH working solution (100 µL, […]) was added to the sample treated group and the control group, and fresh medium was added to the blank group. Fluorescence values were determined every 5 min for 1 h at an excitation wavelength of 485 nm and a determination wavelength of 528 nm. […] The CAA unit was calculated by the area of fluorescence curve (AUC), as shown in Equation (3). […] The Trolox equivalent (TEAC µM TE/g peptides) was calculated to represent the CAA value. (3) CAA=[1−(AUCt−AUCo)/(AUCc−AUCo)]×100 where AUCt, AUCc, and AUCo were the fluorescence curve area of the test sample, the control, and the blank group, respectively.

The subject of experiment [3] is HepG2 cells. More on the design: method as in 2 sources, ref 23 = [23]; PMID 28764069; doi:10.1016/j.foodchem.2017.05.144; 23. Liang R. Zhang Z. Lin S. Effects of pulsed electric field on intracellular antioxidant activity and antioxidant enzyme regulating capacities of pine nut ( Pinus koraiensis ) peptide QDHCH in HepG2 ||| ref 24 = [24]; PMID 29195889; doi:10.1016/j.foodres.2016.10.023; 24. Wang L. Ding L. Yu Z. Zhang T. Ma S. Liu J. Intracellular ROS scavenging and antioxidant enzyme regulating capacities of corn gluten meal-derived antioxidant peptides in HepG2 cells Food Res. Int. The conditions noted are these: related report, pine nut peptide; cited from earlier work. The source says:
The principle of CAA is that intracellular lipase degrades the fluorescent probe DCFH-DA to DCFH, which is oxidized to fluorescent DCF by intracellular free radicals under AAPH induction, and the antioxidant peptide can protect the probe from oxidation. […] In related reports, ...

As to GGSIT [GGSIT], in experiment [1] (24 h, 0.2 mg/mL), the “cell viability, 50% cell viability model” value worked out at 66.35% and the “cell viability, 80% cell viability model” value is reported as 96.06%. Also, in experiment [2], the “EC50 (cellular antioxidant activity)” value worked out at 73 µg/mL.

As a reminder, the EC50 is the concentration needed to bring the measured effect to its halfway point. As to `N[C@@H](CCC(=O)N[C@@H](CS)C(=O)NCC(=O)O)C(=O)O` [GSH, Glutathione, reference compound], the “cell viability, 50% cell viability model” value in experiment [1] (HepG2, AAPH-induced damage (0.25 mM as printed), sample 0.2 mg/mL 24 h then AAPH 24 h, MTT, AAPH damage group 49.51%) stood at 57.60%. For the same molecule, the “cell viability, 80% cell viability model” value in experiment [1] (HepG2, AAPH-induced damage (10 mM [sic]), sample 0.2 mg/mL 24 h then AAPH 24 h, MTT, AAPH damage group 79.41%) came out at 92.08%. The “CAA Value” in experiment [2] (HepG2, Trolox equivalent, Trolox as standard antioxidant) is listed as 4.593 mM TE/g Peptide. Further, the EC50 in experiment [2] (Homo sapiens, HepG2, 1 h, read-out: EC50 (cellular antioxidant activity)) worked out at 30 µg/mL (≈ 97.6 µM).

As to “QDHCH [pine nut peptide of a related report]”, in experiment [3], the “EC50 value (cellular antioxidant activity)” value is 130 µg/mL.

Take SGTAV [SGTAV]: in experiment [1] (24 h, 0.2 mg/mL), the “cell viability, 50% cell viability model” value is recorded as 73.61% and the “cell viability, 80% cell viability model” value came out at 107.43%. Also, in experiment [2], the “EC50 (cellular antioxidant activity)” value came to 9 µg/mL.

GGSLT [GGSLT]: the “cell viability, 50% cell viability model” value in experiment [1] (24 h, 0.2 mg/mL) is reported as 68.25%. Moreover, the “EC50 (cellular antioxidant activity)” value in experiment [2] was found to be 64 µg/mL.

For the molecule SPSSS [SPSSS], in experiment [1] (24 h, 0.2 mg/mL), the “cell viability, 50% cell viability model” value stood at 73.52% and the “cell viability, 80% cell viability model” value was 101.09%. In addition, the “EC50 (cellular antioxidant activity)” value in experiment [2] came out at 27 µg/mL.

For TGVAS [TGVAS], the “cell viability, 50% cell viability model” value in experiment [1] (24 h, 0.2 mg/mL) amounted to 64.69%. Further, in experiment [2], the “EC50 (cellular antioxidant activity)” value was 37 µg/mL.

Consider NSVAA [NSVAA], for which, in experiment [1] (24 h, 0.2 mg/mL), the “cell viability, 50% cell viability model” value was determined as 70.55% and the “cell viability, 80% cell viability model” value stood at 100.09%. Besides, the “EC50 (cellular antioxidant activity)” value in experiment [2] is 95 µg/mL.
